# From patent US20160067208A1, “ADHESION PREVENTING AGENT” (FARNEX INCORPORATED, priority 2013, published 2016)
# Assay: Viscosity of the compound itself (Gemini II, Malvern)
# Assay type: physicochemical
# Conditions: 25° C., at shear velocity of 92 1/s
# Experimental: In addition, the amphipathic compound to be used for the adhesion preventing agent of the present invention has low viscosity in itself. Specifically, the amphipathic compound to be used for the adhesion preventing agent of the present invention has a viscosity of preferably 15.0 Pa·s or less, more preferably 11.0 Pa·s or less, and further preferably 6.0 Pa·s or less as measured at 25° C. in itself. The viscosity can be measured using, for example, a viscosity and viscoelasticity measuring apparatus (Gemini II, Malvern Instruments Ltd.) at 25° C.
# The viscosity of each of the compounds described in the Examples 1-7 was measured using a viscosity/viscoelasticity measuring instrument (Gemini II, Malvern) at the temperature of 25° C.
row,SMILES,Viscosity [Pa·s]
1,"CC(C)=CCC/C(C)=C/CCC(C)=CCOCC(CO)(CO)CO (racemic) [Example 30, mono-O-(3,7,11-trimethyldodeca-2,6,10-trienyl)pentaerythritol]",1.6
2,"CC(C)=CCC/C(C)=C/CC/C(C)=C/CCC(C)=CC(=O)OCC(O)CO (racemic) [Example 41, mono-O-(3,7,11,15-tetramethylhexadeca-2,6,10,14-tetraenoyl)glycerol]",3.8
3,"CC(C)=CCC/C(C)=C/CC/C(C)=C/CCC(C)=CCOCC(O)CO (racemic) [Example 44, mono-O-(3,7,11,15-tetramethylhexadeca-2,6,10,14-tetraenyl)glycerol]",0.26
4,"CC(C)=CCC/C(C)=C/CC/C(C)=C/CCC(C)=CCOCC(CO)(CO)CO (racemic) [Example 46, mono-O-(3,7,11,15-tetramethylhexadeca-2,6,10,14-tetraenyl)pentaerythritol]",2.9
5,"CC(C)=CCC/C(C)=C/CC/C(C)=C/CCC(C)=CCOC(=O)C(O)CO (racemic) [Example 52, 3,7,11,15-tetramethylhexadeca-2,6,10,14-tetraenyl glycerate]",0.23
6,"CC(C)=CCC/C(C)=C/CC/C(C)=C/CCC(C)=CCCCOC(=O)C(O)CO (racemic) [Example 53, 5,9,13,17-tetramethyloctadeca-4,8,12,16-tetraenyl glycerate]",0.21
7,"CC(C)=CCC/C(C)=C/CCC(C)=CCCC(=O)OCC(O)C(O)CO (stereo not drawn) [Example 2, mono-O-(5,9,13-trimethyltetradeca-4,8,12-trienoyl)erythritol]",4.7
8,"CC(C)=CCCC(C)=CCCC(C)=CCCC(C)=CCCCOCC(O)CO (stereo not drawn) [Example 48, mono-O-(5,9,13,17-tetramethyloctadeca-4,8,12,16-tetraenyl)glycerol]",0.16
9,"CC(=CC(=O)OCC(O)CO)CCCC(C)CCCC(C)C (stereo not drawn) [Example 54, mono-O-(3,7,11-trimethyldodec-2-enoyl)glycerol]",0.45

# Results, then the compound that gave them:
row,Viscosity [Pa·s],SMILES
1,2.5,"CC(C)=CCC/C(C)=C/CCC(C)=CCCC(=O)OCC(CO)(CO)CO (racemic) [Example 3, mono-O-(5,9,13-trimethyltetradeca-4,8,12-trienoyl)pentaerythritol]"
2,0.20,"CC(C)=CCC/C(C)=C/CCC(C)=CCOCC(O)CO (racemic) [Example 28, mono-O-(3,7,11-trimethyldodeca-2,6,10-trienyl)glycerol]"
3,0.23,"CC(C)=CCC/C(C)=C/CCC(C)=CCCCOCC(O)CO (racemic) [Example 31, mono-O-(5,9,13-trimethyltetradeca-4,8,12-trienyl)glycerol]"
4,2.6,"CC(C)=CCC/C(C)=C/CC/C(C)=C/CCC(C)=CCCC(=O)OCC(O)COCC(O)CO (stereo not drawn) [Example 7, mono-O-(5,9,13,17-tetramethyloctadeca-4,8,12,16-tetraenoyl)diglycerol]"
5,3.0,"CC(C)=CCC/C(C)=C/CCC(C)=CC(=O)OCC(O)CO (stereo not drawn) [Example 27, mono-O-(3,7,11-trimethyldodeca-2,6,10-trienoyl)glycerol]"
6,0.37,"CC(C)=CCC/C(C)=C/CCC(C)=CCCCOCC(O)COCC(O)CO (stereo not drawn) [Example 34, mono-O-(5,9,13-trimethyltetradeca-4,8,12-trienyl)diglycerol]"
7,0.16,"CC(C)=CCC/C(C)=C/CCC(C)=CCCCOC(=O)C(O)CO (stereo not drawn) [Example 36, 5,9,13-trimethyltetradeca-4,8,12-trienyl glycerate]"
8,1.4,"CC(C)=CCC/C(C)=C/CC/C(C)=C/CCC(C)=CCCCOCC(O)COCC(O)CO (stereo not drawn) [Example 51, mono-O-(5,9,13,17-tetramethyloctadeca-4,8,12,16-tetraenyl)diglycerol]"
9,10.6,"CC(=CC(=O)OCC(CO)(CO)CO)CCCC(C)CCCC(C)CCCC(C)C (stereo not drawn) [Example 55, mono-O-(3,7,11,15-tetramethylhexadec-2-enoyl)pentaerythritol]"
